This passage reports TGI results from PubChem BioAssay (NCI).

Some test systems named below: ACHN renal; PC-3 prostate; SK-OV-3 ovarian; HCC-2998 colon; RXF 393 renal; UACC-257 melanoma; SK-MEL-2 melanoma; NCI-H226 lung; CCRF-CEM leukemia; MALME-3M melanoma; COLO 205 colon.
Common to all, as to test: NCI tumour cell line growth inhibition, 48 h

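Cultured in 96-well plates, cells were exposed to test compound for 48 hours across five concentrations. TGI marks complete inhibition of growth.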

For the compound `O=C(NC(=O)c1ccccc1)OC(c1ccccc1)C1CO1` (stereo unspecified), the TGI in the assay with ACHN renal, with PC-3 prostate, in the assay on SK-OV-3 ovarian, with HCC-2998 colon, in the assay on RXF 393 renal and with UACC-257 melanoma was greater than 100 µM in each case. The TGI in the assay on SK-MEL-2 melanoma, in the assay on NCI-H226 lung, with CCRF-CEM leukemia, with MALME-3M melanoma and with COLO 205 colon was greater than 100 µM throughout.

Take `COC(=O)[C@H](C)NC(=O)C1(CNC(=O)[C@H](C)NC(=O)OC(C)(C)C)Cc2ccccc2-c2ccccc2C1`: the TGI was greater than 57.7 µM with ACHN renal; greater than 75.4 µM in the assay on PC-3 prostate; greater than 100 µM with SK-OV-3 ovarian; greater than 59.8 µM in the assay on HCC-2998 colon; greater than 88.9 µM in the assay on RXF 393 renal; greater than 78.9 µM in the assay on UACC-257 melanoma. Besides, the TGI with SK-MEL-2 melanoma was greater than 68.9 µM; with NCI-H226 lung, 61.5 µM; in the assay with CCRF-CEM leukemia, 43.9 µM; in the assay on MALME-3M melanoma it was 36.1 µM; in the assay with COLO 205 colon, 53.9 µM.

`O=[N+]([O-])c1cnc(N(CCO)CCO)s1`: the TGI in the assay with ACHN renal, in the assay with PC-3 prostate, in the assay on SK-OV-3 ovarian, in the assay with HCC-2998 colon, with RXF 393 renal and with UACC-257 melanoma was greater than 100 µM in each case. Besides, the TGI in the assay on SK-MEL-2 melanoma, in the assay on NCI-H226 lung, in the assay on CCRF-CEM leukemia, in the assay with MALME-3M melanoma and in the assay with COLO 205 colon was greater than 100 µM in each case.

For the compound `COc1ccc(C(OC(=O)[C@H](O[Si](C)(C)C(C)(C)C)[C@@H](NC(=O)c2ccccc2)c2ccccc2)c2ccc(OC)cc2)cc1`, the TGI with ACHN renal, with PC-3 prostate, in the assay on HCC-2998 colon, in the assay on RXF 393 renal, with UACC-257 melanoma and with SK-MEL-2 melanoma was greater than 100 µM each time. For the same compound, the TGI in the assay on NCI-H226 lung, with CCRF-CEM leukemia, with MALME-3M melanoma and in the assay on COLO 205 colon was greater than 100 µM in each case.

Take `C=C[C@]1(C)CC(=O)C(C(C)C=O)[C@]12C(=O)Oc1cccc(C)c1C2=O` (stereo partly specified): the TGI in the assay with ACHN renal was determined as 29 µM; with PC-3 prostate, 26.3 µM; with SK-OV-3 ovarian it was 33.1 µM; in the assay on HCC-2998 colon, 31.7 µM; in the assay with RXF 393 renal, 27.6 µM; in the assay on UACC-257 melanoma, 33.2 µM. Also, the TGI came out at 32.4 µM with SK-MEL-2 melanoma; 35 µM with NCI-H226 lung; 17.6 µM with CCRF-CEM leukemia; 34.5 µM in the assay on MALME-3M melanoma; 31.2 µM in the assay with COLO 205 colon.

As to `O=C(NNC(=S)Nc1ccc(Cl)cc1)C12CC3CC(CC(C3)C1)C2`, the TGI with ACHN renal is 29 µM; in the assay on PC-3 prostate, 19.2 µM; with SK-OV-3 ovarian, 64.7 µM; in the assay with HCC-2998 colon it was 27 µM; in the assay on RXF 393 renal it was 48.6 µM; in the assay on UACC-257 melanoma it was greater than 57.3 µM. The TGI in the assay on SK-MEL-2 melanoma worked out at 38.2 µM; in the assay with NCI-H226 lung it was 31.6 µM; in the assay on CCRF-CEM leukemia it was 11.6 µM; in the assay on MALME-3M melanoma, 47.4 µM; in the assay on COLO 205 colon, 18.3 µM.

In the case of `CN1C(=O)N/C(=C\c2ccc(S(=O)(=O)N/N=C/c3ccccc3)cc2)C1=O`, the TGI was greater than 100 µM with ACHN renal; greater than 100 µM in the assay on PC-3 prostate; greater than 100 µM in the assay with SK-OV-3 ovarian; greater than 100 µM in the assay with HCC-2998 colon; 98.1 µM in the assay on RXF 393 renal; greater than 100 µM with UACC-257 melanoma. Besides, the TGI in the assay on SK-MEL-2 melanoma, with NCI-H226 lung, in the assay on CCRF-CEM leukemia, in the assay on MALME-3M melanoma and in the assay with COLO 205 colon was greater than 100 µM in each case.

With `Cc1cccc2c(N)c3cccc(C(=O)NCC[N+](C)(C)Cc4ccc(S(C)(=O)=O)cc4)c3nc12`, the TGI in the assay on ACHN renal, in the assay on PC-3 prostate, in the assay with SK-OV-3 ovarian, with HCC-2998 colon, with RXF 393 renal and in the assay with UACC-257 melanoma was greater than 100 µM throughout. The TGI with SK-MEL-2 melanoma is greater than 100 µM; in the assay with NCI-H226 lung, greater than 100 µM; in the assay with CCRF-CEM leukemia it was greater than 62 µM; in the assay with MALME-3M melanoma, greater than 100 µM; with COLO 205 colon, greater than 100 µM.

As for `COc1ccc(C2CC(c3ccc(NS(=O)(=O)c4cc([N+](=O)[O-])ccc4C)cc3)=NN2S(=O)(=O)c2cc([N+](=O)[O-])ccc2C)cc1` (stereo unspecified), the TGI in the assay with ACHN renal was greater than 100 µM; in the assay with PC-3 prostate, greater than 100 µM; in the assay with SK-OV-3 ovarian, greater than 100 µM; in the assay with HCC-2998 colon, 57.9 µM; with RXF 393 renal, greater than 100 µM; in the assay with UACC-257 melanoma it was greater than 100 µM. The TGI in the assay with SK-MEL-2 melanoma, in the assay on NCI-H226 lung, in the assay on CCRF-CEM leukemia, with MALME-3M melanoma and in the assay with COLO 205 colon was greater than 100 µM throughout.

Consider `OCC1C2CCC3(OCCO3)C12` (stereo unspecified), for which the TGI in the assay on ACHN renal, with PC-3 prostate, in the assay with SK-OV-3 ovarian, with HCC-2998 colon, with RXF 393 renal and with UACC-257 melanoma was greater than 100 µM throughout. Further, the TGI in the assay with SK-MEL-2 melanoma, with NCI-H226 lung, in the assay with CCRF-CEM leukemia, with MALME-3M melanoma and with COLO 205 colon was greater than 100 µM in each case.

As for `Cc1nn(C(=O)c2ccc(Cl)cc2)c2c1C(c1ccccc1O)SC(N)=N2` (stereo unspecified), the TGI with ACHN renal, with PC-3 prostate, in the assay with SK-OV-3 ovarian, in the assay with HCC-2998 colon, in the assay on RXF 393 renal and in the assay on UACC-257 melanoma was greater than 10 µM throughout. The TGI with SK-MEL-2 melanoma, with NCI-H226 lung, with CCRF-CEM leukemia, in the assay on MALME-3M melanoma and in the assay on COLO 205 colon was greater than 10 µM each time.

As for `CC(C)(C)C(O)CC(O)(C(F)(F)F)C(F)(F)F` (stereo unspecified), the TGI in the assay on ACHN renal, in the assay with PC-3 prostate, in the assay on SK-OV-3 ovarian, with HCC-2998 colon, in the assay with RXF 393 renal and in the assay with UACC-257 melanoma was greater than 100 µM throughout. Moreover, the TGI in the assay on SK-MEL-2 melanoma, with NCI-H226 lung, in the assay on CCRF-CEM leukemia, with MALME-3M melanoma and with COLO 205 colon was greater than 100 µM in each case.

For the compound `Fc1cc(C2=Nn3c(CNc4ccc(Cl)cc4)nnc3S/C2=C\c2ccc(-c3ccc(Cl)cc3)o2)c(Cl)cc1Cl`, the TGI in the assay on ACHN renal was greater than 100 µM; in the assay with PC-3 prostate, 51 µM; with HCC-2998 colon, greater than 100 µM; with RXF 393 renal, 61.4 µM; with UACC-257 melanoma, greater than 100 µM; in the assay with SK-MEL-2 melanoma, greater than 100 µM. Further, the TGI with NCI-H226 lung is greater than 100 µM; in the assay on CCRF-CEM leukemia it was greater than 100 µM; in the assay with MALME-3M melanoma, 60.7 µM; in the assay with COLO 205 colon, 88.6 µM.
